# Patent US9718820B2, “Substituted aza-bicyclic imidazole derivatives useful TRPM8 receptor modulators” (Janssen Pharmaceutica NV, priority 2010, dated 2017)
# What was measured:
# [1] = target: canine TRPM8 (Canis lupus familiaris, UniProt Q1A7N1); experiment: In vitro canine TRPM8 functional assay (icilin-induced intracellular Ca2+ increase, FLIPR/FDSS); type: cell-based; conditions: 0.2 μM compound; icilin response in HEK293 cells stably expressing canine TRPM8
# Protocol: The functional activity of representative compounds of the formula (I) of the present invention was quantified by measuring changes in intracellular calcium concentration using a Ca^2+-sensitive fluorescent dye. The changes in fluorescent signal were monitored by a fluorescence plate reader, either a FLIPR™ (Molecular Devices) or FDSS (Hamamatsu).
# HEK293 cells stably expressing canine TRPM8 were routinely grown as monolayers in Dulbecco's minimum essential medium supplemented with 10% FBS, 2 mM L-glutamine, 100 units/mL penicillin, 100 ug/mL streptomycin and 400 μg/mL G418. Cells were maintained in 5% CO2 at 37° C. […] Cells were treated with compounds of the formula (I) at varying concentrations and intracellular Ca^2+ was measured for 5 min prior to the addition of icilin to each well to achieve a final concentration that produces an approximately 80% maximal response.
# Maximal fluorescence intensity (FI) achieved upon addition of icilin was exported from the FLIPR™ or FDSS software and further analyzed using GraphPad Prism 3.02 (Graph Pad Software Inc., CA, U.S.A.). […] Finally, the EC50 and IC50 values were calculated with the best-fit curve determined by GraphPad Prism
# [2] = target: TRPM8 channel (Rattus norvegicus (Rat), UniProt Q8R455); experiment: Inhibition of icilin-induced "wet-dog" shakes in rats; type: in vivo; conditions: 10 mg/kg p.o. in 10% HP-β-CD, icilin 3.0 mg/kg i.p.
# Chain of TRPM8 channel (Q8R455 whole entry): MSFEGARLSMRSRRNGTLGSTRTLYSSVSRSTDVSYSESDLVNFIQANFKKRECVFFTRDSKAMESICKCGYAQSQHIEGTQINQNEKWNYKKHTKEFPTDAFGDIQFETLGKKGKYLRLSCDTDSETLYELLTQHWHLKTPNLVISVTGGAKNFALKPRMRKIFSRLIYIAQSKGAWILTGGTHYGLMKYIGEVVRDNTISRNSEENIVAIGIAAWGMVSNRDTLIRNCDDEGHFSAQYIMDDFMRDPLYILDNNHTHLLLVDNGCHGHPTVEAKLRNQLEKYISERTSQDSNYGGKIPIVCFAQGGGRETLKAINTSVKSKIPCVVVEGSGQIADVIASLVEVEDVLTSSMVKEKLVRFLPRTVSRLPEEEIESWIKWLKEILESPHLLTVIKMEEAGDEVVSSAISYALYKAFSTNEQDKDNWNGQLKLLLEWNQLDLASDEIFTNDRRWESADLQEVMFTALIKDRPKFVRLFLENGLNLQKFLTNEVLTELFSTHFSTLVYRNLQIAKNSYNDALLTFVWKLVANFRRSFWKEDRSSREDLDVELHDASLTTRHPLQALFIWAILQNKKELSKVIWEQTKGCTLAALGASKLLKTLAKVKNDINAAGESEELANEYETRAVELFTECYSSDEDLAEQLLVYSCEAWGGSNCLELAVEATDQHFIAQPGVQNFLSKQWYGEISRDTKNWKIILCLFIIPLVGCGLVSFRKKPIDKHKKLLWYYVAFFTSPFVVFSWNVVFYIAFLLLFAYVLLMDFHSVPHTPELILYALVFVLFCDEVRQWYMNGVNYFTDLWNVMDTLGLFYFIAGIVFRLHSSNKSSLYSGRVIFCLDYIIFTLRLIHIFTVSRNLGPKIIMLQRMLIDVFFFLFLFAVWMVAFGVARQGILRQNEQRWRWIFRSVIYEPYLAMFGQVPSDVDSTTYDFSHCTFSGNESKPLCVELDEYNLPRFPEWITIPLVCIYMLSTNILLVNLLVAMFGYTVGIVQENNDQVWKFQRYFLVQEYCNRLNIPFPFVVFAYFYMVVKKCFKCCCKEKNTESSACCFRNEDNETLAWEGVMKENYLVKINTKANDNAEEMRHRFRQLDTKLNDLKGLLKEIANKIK
# Protocol: Similar shaking or jumping behavior was also evident in mice, rabbits, cats, dogs and monkeys. In humans, icilin produced a sensation of coolness on contact with mucous membranes, cold prickling when 0.1 mg was dropped on the tongue and coldness in the mouth, pharynx and chest lasting 30-60 min when 5-10 mg was ingested orally (WEI, E. T., et al., “AG-3-5: a chemical producing sensations of cold”, J Pharm Pharmacol., 1983, pp 110-112, Vol. 35). The inhibition or reversal of icilin-induced shaking behaviors in rodents provides evidence for the engagement and functional blockade of the TRPM8 channel and thereby for the utility of TRPM8 antagonists in treating or preventing a disease or condition in a mammal in which the disease or condition is affected by the modulation of TRPM8 receptors.
# Male Sprague Dawley rats (220-450 g, Charles River Labs, n=6-9/treatment) were used to evaluate the ability of test compounds to block icilin-induced “wet-dog” shakes (WDS). […] Icilin was then administered in 10% solutol/H2O, at 3.0 mg/kg, i.p., and spontaneous “wet-dog” shakes were counted 10 min following the icilin injection over a 10-min period.
# Chain of canine TRPM8 (Q1A7N1 1-1104): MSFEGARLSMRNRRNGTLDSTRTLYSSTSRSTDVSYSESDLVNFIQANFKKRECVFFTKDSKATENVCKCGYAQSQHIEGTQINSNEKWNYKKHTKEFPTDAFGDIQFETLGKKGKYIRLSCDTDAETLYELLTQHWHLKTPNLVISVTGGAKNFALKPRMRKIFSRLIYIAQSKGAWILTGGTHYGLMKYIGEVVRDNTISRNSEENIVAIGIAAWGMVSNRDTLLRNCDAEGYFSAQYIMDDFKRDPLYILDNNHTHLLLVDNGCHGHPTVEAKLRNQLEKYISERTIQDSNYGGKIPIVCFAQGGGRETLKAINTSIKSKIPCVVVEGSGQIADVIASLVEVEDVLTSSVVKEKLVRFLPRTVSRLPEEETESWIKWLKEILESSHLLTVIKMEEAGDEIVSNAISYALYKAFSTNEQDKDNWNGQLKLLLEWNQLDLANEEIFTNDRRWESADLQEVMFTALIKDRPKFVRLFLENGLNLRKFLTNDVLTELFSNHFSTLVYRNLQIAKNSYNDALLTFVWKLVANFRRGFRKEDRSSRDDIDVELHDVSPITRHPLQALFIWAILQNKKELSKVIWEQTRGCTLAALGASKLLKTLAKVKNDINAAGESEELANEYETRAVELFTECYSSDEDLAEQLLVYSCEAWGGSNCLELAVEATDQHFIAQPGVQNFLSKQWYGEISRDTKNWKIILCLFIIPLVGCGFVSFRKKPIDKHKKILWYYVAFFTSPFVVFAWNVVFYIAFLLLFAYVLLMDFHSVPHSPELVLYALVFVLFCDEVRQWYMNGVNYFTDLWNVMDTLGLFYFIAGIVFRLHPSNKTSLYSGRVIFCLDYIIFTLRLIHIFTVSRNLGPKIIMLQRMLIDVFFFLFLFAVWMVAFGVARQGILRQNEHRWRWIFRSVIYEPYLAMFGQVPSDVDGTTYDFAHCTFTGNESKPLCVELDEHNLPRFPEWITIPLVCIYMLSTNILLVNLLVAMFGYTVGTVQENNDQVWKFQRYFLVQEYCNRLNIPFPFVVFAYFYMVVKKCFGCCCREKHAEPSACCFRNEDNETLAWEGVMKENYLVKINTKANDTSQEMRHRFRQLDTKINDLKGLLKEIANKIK
Compound,% Inh @ 0.2 μM [1],"Icilin % Inhibition @ 1.5 h, 10 mg/kg [2]"
Cn1nc(C(C)(C)C)c(Cl)c1-c1nc2nc(-c3ccccc3Cl)cnc2[nH]1 [Compound 110],99%,–
Cn1nc(C(C)(C)C)c(Cl)c1-c1nc2nc(-c3ccccc3C(F)(F)F)cc(C(F)(F)F)c2[nH]1 [Compound 1],99%,–
"COc1nc(-c2ccccc2Cl)cc2nc(-c3c(C#N)c(C(C)(C)C)nn3C)[nH]c12.CS(=O)(=O)O [Compound 17, 3-tert-Butyl-5-[6-(2-chloro-phenyl)-4-methoxy-3H-imidazo[4,5-c]pyridine-2-yl]-1-methyl-1H-pyrazole-4-carbonitrile methanesulfonic acid salt]",–,38%
